In EP4624457A1, “I[…] DERIVATIVES, I[…] NEURODEGENERATIVE DISEASES” (Centre National de la Recherche Scientifique, priority 2024, dated 2025) one finds IC50 data, which are given here for one compound.

The experiment concerns the target muscle (α1)2βγδ nAChR subtype (Torpedo marmorata, UniProt P02711+Q6S3H8+Q6S3H9). Put plainly: Two-electrode voltage clamp electrophysiology, antagonistic activity on Xenopus laevis oocytes having incorporated Torpedo muscle-type nAChR. In kind it is cell-based. The settings on record: TEVC, value (95% CI), toxin purified by the applicant, Figure 5, read-out: nAChR subtype (nM; 95% CI) α12β1γδ (Torpedo). The text has this: The emerging cyclic imines toxins (CiTXs) of global distribution across coastal environments that are produced by dinoflagellates move fast up the human food chain through shellfish. The CiTX family includes 44 compounds: 7 gymnodimines (A-E, 12-methylgymnodimine and 16-desmethyl gymnodimine D), 16 spirolides (A-D, G-I, 13-desmethyl spirolide-C, 27-Hydroxy-13-desmethyl spirolide-C, 13,19-didesmethyl spirolide-C, 20-hydroxy-13,19-didesmethyl spirolide- C, 27-hydroxy-13,19-spirolide-C, 27-Oxo-13,19-didesmethyl spirolide-C, 13-desmethyl spirolide-D, 20-hydroxy-13,19-didesmethyl spirolide-D and 20-methyl spirolide-G), 8 pinnatoxins (A-H), 3 pteriatoxins (A-C), 6 prorocentrolides (A-B, 4- hydroxyprorocentrolide, 9,51-dihydro prorocentrolide, 30-sulfate prorocentrolide and 14-O-acetyl-4-hydroxyprorocentrolide), 1 spiroprorocentrimine, 2 portimines (A and B), and 1 kabirimine, (Aráoz et al. (2020) Cyclic imine toxins survey in coastal european shellfish samples: Bioaccumulation and mode of action of 28-O-palmitoyl ester of pinnatoxin-G. First report of portimine-A bioaccumulation. Harmful Algae, 98 [1]). The spiroimine moiety is the major feature characterizing cyclic imine toxins. […]

Chain of muscle (α1)2βγδ nAChR subtype (P02711 25-461): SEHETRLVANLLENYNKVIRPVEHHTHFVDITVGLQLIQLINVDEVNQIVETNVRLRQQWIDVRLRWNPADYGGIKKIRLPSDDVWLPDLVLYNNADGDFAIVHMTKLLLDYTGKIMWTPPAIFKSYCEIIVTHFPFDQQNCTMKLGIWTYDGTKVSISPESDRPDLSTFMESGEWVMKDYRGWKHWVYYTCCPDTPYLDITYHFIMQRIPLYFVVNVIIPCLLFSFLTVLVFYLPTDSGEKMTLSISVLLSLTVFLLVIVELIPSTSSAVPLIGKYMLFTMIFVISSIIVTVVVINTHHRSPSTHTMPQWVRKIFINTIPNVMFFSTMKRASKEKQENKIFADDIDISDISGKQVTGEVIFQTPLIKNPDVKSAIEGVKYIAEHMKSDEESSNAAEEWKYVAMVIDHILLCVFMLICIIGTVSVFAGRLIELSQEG
Chain of muscle (α1)2βγδ nAChR subtype (Q6S3H9 entry or part of it): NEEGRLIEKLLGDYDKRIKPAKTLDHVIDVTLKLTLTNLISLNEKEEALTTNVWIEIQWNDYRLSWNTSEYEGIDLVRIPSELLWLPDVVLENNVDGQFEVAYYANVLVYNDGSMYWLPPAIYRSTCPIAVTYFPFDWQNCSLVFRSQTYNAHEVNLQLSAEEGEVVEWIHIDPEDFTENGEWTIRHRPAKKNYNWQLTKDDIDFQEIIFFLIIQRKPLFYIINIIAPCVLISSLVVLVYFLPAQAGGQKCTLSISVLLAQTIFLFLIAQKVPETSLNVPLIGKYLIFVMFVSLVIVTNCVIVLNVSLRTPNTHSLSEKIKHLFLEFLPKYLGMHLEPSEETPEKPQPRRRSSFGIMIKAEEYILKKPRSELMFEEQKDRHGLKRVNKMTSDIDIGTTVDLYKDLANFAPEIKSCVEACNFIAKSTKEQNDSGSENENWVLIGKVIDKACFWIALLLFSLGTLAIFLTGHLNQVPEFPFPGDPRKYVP
Chain of muscle (α1)2βγδ nAChR subtype (Q6S3H8 entry or part of it): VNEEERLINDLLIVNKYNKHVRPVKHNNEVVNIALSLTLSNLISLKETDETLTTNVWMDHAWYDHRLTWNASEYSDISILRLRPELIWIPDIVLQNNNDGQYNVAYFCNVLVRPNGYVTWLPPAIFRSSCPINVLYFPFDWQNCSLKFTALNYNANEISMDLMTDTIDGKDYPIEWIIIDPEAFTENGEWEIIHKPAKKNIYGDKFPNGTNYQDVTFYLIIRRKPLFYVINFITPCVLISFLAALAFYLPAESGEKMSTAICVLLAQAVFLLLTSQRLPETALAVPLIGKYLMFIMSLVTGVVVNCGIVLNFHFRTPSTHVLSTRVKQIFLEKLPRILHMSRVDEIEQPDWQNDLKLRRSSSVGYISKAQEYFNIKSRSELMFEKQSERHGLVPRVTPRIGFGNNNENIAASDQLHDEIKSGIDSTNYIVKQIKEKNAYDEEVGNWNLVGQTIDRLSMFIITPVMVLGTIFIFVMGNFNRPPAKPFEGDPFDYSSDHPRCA
Chain of muscle (α1)2βγδ nAChR subtype (Q6S3I0 entry or part of it, further chain): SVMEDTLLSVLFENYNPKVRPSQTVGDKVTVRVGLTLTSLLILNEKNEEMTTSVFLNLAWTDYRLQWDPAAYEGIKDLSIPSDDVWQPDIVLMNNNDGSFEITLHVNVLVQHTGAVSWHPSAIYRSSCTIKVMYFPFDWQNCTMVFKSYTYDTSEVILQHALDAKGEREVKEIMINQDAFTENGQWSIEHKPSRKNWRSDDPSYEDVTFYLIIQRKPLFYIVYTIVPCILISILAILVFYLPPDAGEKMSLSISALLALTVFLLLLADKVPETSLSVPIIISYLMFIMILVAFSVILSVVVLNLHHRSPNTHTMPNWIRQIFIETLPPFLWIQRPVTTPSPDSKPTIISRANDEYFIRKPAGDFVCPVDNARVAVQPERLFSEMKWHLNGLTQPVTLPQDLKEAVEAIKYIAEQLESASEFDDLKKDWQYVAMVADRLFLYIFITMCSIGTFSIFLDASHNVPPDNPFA

On to `C=CC1=C[C@@H]2[C@@H]3O[C@]4(CC[C@H](O4)[C@@H](C)C[C@@H](O)C3=O)C[C@H](O)C3=NCC[C@@]32CC1` [Portimine-A], for which the IC50 amounted to 11900 nM.
